In patent US20230399358A1, “IMMUNOGLOBULIN PURIFICATION PEPTIDES AND THEIR USE” (North Carolina State University, priority 2019, published 2023):

Columns and labels:
[1] = test system: CHO HCPs; assay: CHO HCP-specific ELISA, log removal value of HCPs; design: species or system Chinese hamster
Procedure: Purification of IgG from CHO Cell culture fluids using MWRGWQC (SEQ ID NO:31)- and WQRHGIC (SEQ ID NO:30)—Workbeads: A volume of 0.1 mL of resin was packed in a PEEK microbore column, installed on a Waters 2695 unit, and equilibrated with PBS, pH 7.4. All chromatographic buffers were filtered through a compatible 0.2 μm filter prior to use. A volume of 100 μL of solution of human polyclonal IgG at 1 mg/mL in a CHO cell culture fluid at 0.205 mg/mL CHO HCPs was injected in the column at 0.02 mL/min (RT: 5 minutes). Following injection, the resin was washed with PBS at 0.2 mL/min and, subsequently, with 100 mM NaCl in PBS at 0.2 mL/min. Elution was then conducted with […] pH 4. An acidic cleaning step was conducted in 0.1 M glycine pH 2.5 to remove any proteins still bound. The absorbance of the effluent was monitored by UV/Vis spectrophotometry at 280 nm. Fractions were collected and adjusted to neutral pH. Total protein concentration was measured by BCA assay. All collected fractions were also analyzed via SDS PAGE under reducing conditions. The gel was stained by silver staining, and the overall IgG purity in the eluted fractions was determined by densitometric analysis using ImageJ software. Finally, the feed and eluted fractions were analyzed using a CHO-specific ELISA kit to determine the log removal value (LRV) of HCPs. […]

[2] = test system: human polyclonal IgG in CHO-S cell culture fluid; assay: Static purification of IgG from CHO cell culture supernatant on peptide-Toyopearl resins, SDS-PAGE densitometry; details: Gel B, lane E (pH 4)
[3] = test system: human IgG; assay: Dynamic binding capacity by breakthrough assay; details: 20 mg/mL IgG in PBS
Procedure: Measurements of dynamic binding capacity (DBC) were performed on a Waters 2695 unit. MWRGWQ (SEQ ID NO:2)—Workbeads and WQRHGIC (SEQ ID NO:30)—Workbeads resins were wet packed in a 0.1 mL microbore column and equilibrated in PBS pH 7.4. A solution of human IgG at 20 mg/mL in PBS was owed through the column at 0.05 mL/min and 0.02 mL/min, corresponding to residence times (RT) of 2 and 5 min, respectively. The bound IgG was eluted with glycine pH 2.5. The absorbance of the effluent was monitored by UV/Vis spectrophotometry at 280 nm throughout the breakthrough study. The DBC was calculated at 10% of the breakthrough curve.
Breakthrough curves (FIG. 5 panels A-D) were obtained by flowing a 20 mg/mL solution of IgG in PBS through the […] and MWRGWQC (SEQ ID NO:31)-WB adsorbents at two different flow rates (0.05 and 0.02 mL/min) corresponding to two different residence times (2 and 5 minutes).

[4] = test system: human polyclonal IgG in CHO cell culture fluid; assay: Chromatographic purification of IgG from CHO cell culture fluid on WorkBeads resin, SDS-PAGE densitometry; details: Elution 1 (pH 4), 5 min residence time, FIG. 7B
Procedure: Purification of IgG from CHO Cell culture fluids using MWRGWQC (SEQ ID NO:31)- and WQRHGIC (SEQ ID NO:30)—Workbeads: A volume of 0.1 mL of resin was packed in a PEEK microbore column, installed on a Waters 2695 unit, and equilibrated with PBS, pH 7.4. All chromatographic buffers were filtered through a compatible 0.2 μm filter prior to use. A volume of 100 μL of solution of human polyclonal IgG at 1 mg/mL in a CHO cell culture fluid at 0.205 mg/mL CHO HCPs was injected in the column at 0.02 mL/min (RT: 5 minutes). Following injection, the resin was washed with PBS at 0.2 mL/min and, subsequently, with 100 mM NaCl in PBS at 0.2 mL/min. Elution was then conducted with […] pH 4. An acidic cleaning step was conducted in 0.1 M glycine pH 2.5 to remove any proteins still bound. The absorbance of the effluent was monitored by UV/Vis spectrophotometry at 280 nm. Fractions were collected and adjusted to neutral pH. Total protein concentration was measured by BCA assay. All collected fractions were also analyzed via SDS PAGE under reducing conditions. The gel was stained by silver staining, and the overall IgG purity in the eluted fractions was determined by densitometric analysis using ImageJ software. Finally, the feed and eluted fractions were analyzed using a CHO-specific ELISA kit to determine the log removal value (LRV) of HCPs.
The high purity of the recovered IgG using WQRHGI (SEQ ID NO:1), as calculated by densitometric analysis (100%) was confirmed by the HCP LRV value of 2.7, thus indicating WQRHGI (SEQ ID NO:1) has purification abilities similar to Protein A. This is a remarkable result. […] The collected chromatographic fractions were analyzed by SDS-PAGE (FIG. 7B, silver stained to highlight diluted CHO HCPs). The % values of IgG in the fractions (expressed as a ratio of IgG concentration over total protein (e.g., IgG+CHO HCPs)) were calculated by densitometric analysis of the lanes in the SDS gel and were as follows: Control (C), 0.00%; Load (L) 59.77%; Flowthrough (FT), 0.00%; Elution 1 (El1), 100.00%; Elution 2 (El2), 0.00%; IgG 93.30%. […]

WQRHGI was tested, and the HCP clearance [1] was “greater than 99%”, the “HCP LRV” value ([1]; IgG 1 mg/mL in CHO fluid with 0.205 mg/mL HCPs, elution pH 4) was 2.7 and the “% Purity (IgG over total eluted proteins)” value [2] was 100%. For the same substance, the “DBC at 10% breakthrough” value ([3]; residence time 2 min) was 33.6 mg IgG/mL resin, the “DBC at 10% breakthrough” value ([3]; residence time 5 min) was 43.8 mg IgG/mL resin and the “% IgG over total protein” value [4] was 100%.
